The values below come from patent US4751221A, “2-fluoro-arabinofuranosyl purine nucleosides” (Sloan-Kettering Institute for Cancer Research, priority 1985, dated 1988).

One data set has as its system CCRF-CEM cells. Description: Cytotoxicity against CCRF-CEM human tumor cells. To be noted: for IC50: human cells CCRF-CEM, read-out: ID50 CCRFCEM; for inhibitory activity against human tumor cell line CCRF-CEM: in words. It counts as cell-based.
In another data set the test system is NL (Namalva) cells. As to the kind of experiment: Cytotoxicity against NL (Namalva) human tumor cells. It is filed as cell-based. The following applies: for IC50: NAMALVA, human cells NL, read-out: ID50 NL; for inhibitory activity against human tumor cell line Namalva: in words.
The subject of another data set is P-813 cells. Description: Cytotoxicity against P-813 (text: P-815) mouse leukemia cells. It is filed as cell-based. To be noted: for IC50: P815, mouse leukemia cells P-813, read-out: ID50 P-813; for activity against mouse leukemic cells P-815: in words.
For data set [1], the system named is L-1210 mouse leukemic cells. To be noted: in tissue culture; Wilson et al., J. Med. Chem., 13, 369 (1970); cited from earlier work.
The test system of data set [2] is Leishmania tropica promastigotes. As to the kind of experiment: Growth inhibition of Leishmania tropica promastigotes. It is filed as cell-based. To be noted: 50% growth inhibition, read-out: inhibits the growth of Leishmania tropica promastigotes by 50% at the concentration.
For the next data set, the system named is L-1210 cells. Description: Cytotoxicity against L-1210 mouse leukemia cells. It is filed as cell-based. To be noted: for activity against mouse leukemic cells L-1210: in words.

SMILES strings stand for the structures.

As to `Nc1ncnc2c1ncn2[C@@H]1O[C@H](CO)[C@@H](O)[C@@H]1F` [X = NH2, Y = H, 9-(2'-deoxy-2'-fluoro-β-D-arabinofuranosyl)adenine], the IC50 in the data set on CCRF-CEM cells is 0.67 µM; in the data set on NL (Namalva) cells, 3 µM; with P-813 cells, over 30 µM.
In the same order, the values of `OC[C@H]1O[C@@H](n2cnc3c(S)ncnc32)[C@@H](F)[C@@H]1O` [X = SH, Y = H, 9-(2'-deoxy-2'-fluoro-β-D-arabinofuranosyl)-6-thiopurine] are 10 µM, 2 µM and 10 µM.
As to `Nc1ccn([C@@H]2O[C@H](CO)[C@@H](O)[C@@H]2F)c(=O)n1` [FAC, 1-(2'-deoxy-2'-fluoro-β-D-arabinofuranosyl)cytosine], the “growth-inhibitory effect against L-1210 mouse leukemic cells” value in data set [1] was “comparable with that of 1-(β-D-arabinofuranosyl)cytosine (ara-C) and 1-(β-D-arabinofuranosyl)-5-fluorocytosine (ara-FC)”.
Regarding `O=c1[nH]cnc2c1ncn2[C@@H]1O[C@H](CO)[C@@H](O)[C@@H]1F` [9-(2'-deoxy-2'-fluoro-β-D-arabinofuranosyl)hypoxanthin], the IC50 is 15.1 µM in the data set on CCRF-CEM cells; about 30 µM in the data set on NL (Namalva) cells; 0.6 µM in data set [2]; over 30 µM with L-1210 cells (L1210, mouse leukemia cells L-1210, read-out: ID50 L-1210); over 30 µM with P-813 cells. For the same molecule, in the data set with L-1210 cells (at the concentration of 100 μM), the “cytotoxicity against L-1210 cells” value is on record as “does not exhibit any cytotoxicity”.
With `Nc1nc(S)c2ncn([C@@H]3O[C@H](CO)[C@@H](O)[C@@H]3F)c2n1` [9-(2'-deoxy-2'-fluoro-β-D-arabinofuranosyl)-2-amino-6-thiopurine], in the data set with CCRF-CEM cells, the IC50 is 0.1 µM and the “inhibitory activity against human tumor cell line CCRF-CEM” value is listed as “potent inhibitory activity”. In addition, in the data set with NL (Namalva) cells, the IC50 turned out to be 1.2 µM and the “inhibitory activity against human tumor cell line Namalva” value is reported as “potent inhibitory activity”. In addition, the “activity against mouse leukemic cells L-1210” value with L-1210 cells is given as “modest”. In addition, in the data set with P-813 cells, the IC50 was 4.6 µM and the “activity against mouse leukemic cells P-815” value is reported as “modest”.
With `Nc1nc2c(ncn2[C@@H]2O[C@H](CO)[C@@H](O)[C@@H]2F)c(=O)[nH]1` [9-(2'-deoxy-2'-fluoro-β-D-arabinofuranosyl)-guanine], in the data set on CCRF-CEM cells, the IC50 is under 0.1 µM and the “inhibitory activity against human tumor cell line CCRF-CEM” value was “potent inhibitory activity”. Besides, in the data set with NL (Namalva) cells, the IC50 came out at 0.7 µM and the “inhibitory activity against human tumor cell line Namalva” value is “potent inhibitory activity”. In addition, the “activity against mouse leukemic cells L-1210” value with L-1210 cells was “modest”. In addition, in the data set with P-813 cells, the IC50 worked out at 5.4 µM and the “activity against mouse leukemic cells P-815” value is “modest”.
